According to patent US10815275B2, “Antimicrobial peptoids with improved selectivity and use thereof” (priority 2018, dated 2020):
No end group written: not given here.

Columns and labels:
[1] = Metabolic stability in human liver S9 fraction, HPLC; assay type: in vitro ADME; details: human, s9, pH 7.4
Procedure: In order to identify metabolic stability of the peptoids synthesized in Preparation Example 1, such peptoids were subjected to enzymatic reaction using S9 fraction which is a mixture of human liver tissue-extracted metabolic enzymes. Thereafter, for the reaction products, metabolites were quantitated using HPLC.
Specifically, Peptoid NOS. 1 and 4, and Pexiganan as a peptide control (40 μL each, 100 μM) were treated with […], 3.3 mM MgCl2, and 1.3 mM NADPH buffer (306 μL, pH=7.4), to prepare respective samples. The respective samples were treated with S9 fraction (2 μL, 0.1 mg/mL) and then incubated at a temperature of 37° C. When 0, 1, 4, and 24 hours had elapsed after treatment with the S9 fraction, 40 μL of each sample was taken out, and acetonitrile containing the same amount of 0.1% trifluoroacetic acid was used to stop activity of enzymes contained in the S9 fraction. Thereafter, proteins precipitated with acetonitrile were centrifuged at a condition of 1,000×g for 10 minutes at a temperature of 4° C. Then, supernatant was analyzed by HPLC to identify an amount of the remaining peptoid which had not been degraded by the enzymes in the S9 fraction.

B. subtilis = assay type: cell-based; details: 18 h
Procedure: In order to measure antimicrobial activity of the peptoids, Gram-positive B. subtilis or Gram-negative E. coli strain DH5α was treated with Peptoid NOS. 1, 18 to 23, and the peptide Pexiganan, and minimum inhibitory concentrations were measured. Peptoid NOS. 1 and 2, and the peptide Pexiganan are already known antimicrobial peptoids and peptides, and were used for the purpose of making a comparison with novel peptoids in terms of antimicrobial activity.
Specifically, B. subtilis or E. coli DHS a was inoculated into LB liquid medium, and cultured at a temperature of 37° C. for 18 hours. Thereafter, the bacteria were diluted with LB medium so that each bacterial number was 2×10^5 colony-forming units (CFU) per 1 mL, and dispensed into 96-well microtiter plates at 100 μL each. The peptoid, which is 2-fold serially diluted using sterile water, was added to each well at 100 μL each. The plates were incubated at a temperature of 37° C. for 18 hours.
Thereafter, absorbance was measured at a wavelength of 600 nm using a microplate reader (Bio-Rad). The lowest peptoid concentration that completely suppresses growth of microorganisms was measured by a minimum inhibitory concentration (MIC), and the measurement results are shown in Table 12 below. Each of the minimum inhibitory concentration values was calculated as an average value of numerical values obtained through three independent experiments.

MRCS cell line = test: in vitro; assay type: cell-based; details: concentration indicating 50% survival, 24 h, MTS; read-out: LC50 (the source's name)
Procedure: In order to determine whether the peptoids were cytotoxic against human cell lines, […] cell line (Korean Cell Line Bank) which is a human lung cell line was cultured in a DMEM (Dulbecco's modified Eagle's medium) culture solution containing 10% (v/v) fetal bovine serum (FBS) at 5% CO2 and a temperature of 37° C. 100 μL of DMEM medium was dispensed into each well of a 96-well microtiter plate so that the number of cells was 1.3×10^4, and then incubated overnight at a temperature of 37° C. in a 5% CO2 incubator. In this case, a DMEM medium was used as a negative control. Thereafter, the peptoid which is 2-fold serially diluted using sterile water was added to each well, and then incubated for 24 hours.
After incubation, 20 μL of an MTS solution [3-(4,5-dimethylthiazol-2-yl)-5-(3-carboxymethoxyphenyl)-2-(4-sulfophenyl)-2H-tetrazolium, inner salt; MTS] was added thereto and incubated at a temperature of 37° C. for 4 hours. Thereafter, % survival was calculated by measuring absorbance at a wavelength of 490 nm using an ELISA reader. The % survival was calculated as a percentage obtained by dividing the absorbance value for a well-treated with the peptoid by the absorbance value for a well containing control cells which had not been treated with the peptoid.

red blood cells = test: Hemolytic activity on red blood cells; assay type: cell-based, mouse
Method in brief: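 Washed mouse red blood cells (10% v/v in PBS, pH 7.4) incubated with peptoids for 1 h at 37 °C; released haemoglobin read at 540 nm. % hemolysis normalised to 0.1% Triton X-100 (100%) and PBS blank; HD10, HD50 derived, Hmax taken at 200 μM top concentration.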

## GIGKFLKKAKKFGKAFVKILKK-NH2 [Pexiganan, reference compound]
[1]
  remaining at 24 h, 11.5 μM: < 1%
B. subtilis
  MIC B. subtilis: 0.4 µM
MRCS cell line
  CC50: 21.2 µM
Red blood cells
  HD10: 113.4
  HD50: > 200
